Laboratory results reported in publication PMC12216609, “Inhibitors of eIF1A-ribosome interaction unveil uORF-dependent regulation of translation initiation and antitumor and antiviral effects” (The EMBO Journal, 2025).
Several values for one entry are separate records, joined by “and”; a condition that tells them apart may be missing. Equal values may be shown once. Read-outs that look alike come from different tables or passages of the source.

How the values were obtained:
[1] = tested on: IRF7 5'UTR firefly luciferase reporter in HEK293T cells; details: for Reference vs IRF7 (Final data, Fig. 1E): 1/Result, relative to DMSO; for LONG (summary - All), normalized to DMSO: Long reporter; for LONG (summary - All), normalized to DMSO / SHORT (summary - All), normalized to DMSO: individual replicates, outliers excluded, DMSO = 1; for average ( long vs short ratio): summary - All;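 for all read-outs here: luciferase signal corrected by a co-transfected GFP reporter for transfection efficiency, read after overnight compound exposure, with Long and Short reporters differing in 5'UTR length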
Method: For the effect on ribosomal scanning, we used two firefly luciferase reporter genes that differ in their 5'UTR length (Fig. 1C). […] Cells were transfected with these reporters along with a GFP reporter gene used to normalize transfection efficiency. After an overnight 1Ai or DMSO (vehicle control) exposure, luciferase and GFP expression were measured, and normalized activity was determined.
For the reference vs IRF7 5'UTR luciferase reporter assay, HEK239T cells in a 12-well plate were transfected with the previously described IRF7 5'UTR or reference firefly luciferase reported genes (Sehrawat et al, [2019]) (100 ng/well) together with GFP (20 ng/well) that served as an internal control by CaCl2 transfection. After 6 h, half of the growth medium was replaced with a medium containing the different compounds, reaching a final concentration of 20 µM. Twenty-four hours after transfection, transfection efficiency was evaluated using GFP fluorescence intensity (Cytation 5, ex/em: 470/525). Cells were harvested in 50 µL Reported lysis buffer (RLB) and put on a shaker for 10 min. From each well 5 µL were taken in duplicates and tested by luminometer.

NSP1 = NSP1 (Severe acute respiratory syndrome coronavirus 2, UniProt P0DTD1)
eIF1A without NTT = molecular target: T1, eIF1A without NTT (Homo sapiens, UniProt P47813); test: Fluorescence binding assay with NTT-truncated eIF1A; details: for fluorescence ratio, eIF1A Δ NTT: background-corrected, relative to DMSO or lowest 1Ai concentration, replicate columns
T1 construct: His-bdSUMO (cleaved yes); made in house; host or cells: E. coli (BL-21)
T1 sequence (P47813 31-144 limits assumed): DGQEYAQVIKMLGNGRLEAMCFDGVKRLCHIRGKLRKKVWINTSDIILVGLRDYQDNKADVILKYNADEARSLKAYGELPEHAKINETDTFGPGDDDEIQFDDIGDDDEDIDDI

[2] = tested on: cap-proximal AUG GFP reporter in HEK293T cells; type: cell-based; details: GFP WB densitometry; 20 µM overnight; dmso 0.965946;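 note: ratio of upstream to downstream AUG initiation products on GFP Western blot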
eIF1A without CTT = molecular target: T2, eIF1A without CTT (Homo sapiens, UniProt P47813); type: binding; details: for fluorescence ratio, eIF1A Δ CTT: background-corrected, relative to DMSO or lowest 1Ai concentration, replicate columns
T2 construct: His-bdSUMO (cleaved yes); made in house; host or cells: E. coli (BL-21)
T2 sequence (P47813 1-114 limits assumed): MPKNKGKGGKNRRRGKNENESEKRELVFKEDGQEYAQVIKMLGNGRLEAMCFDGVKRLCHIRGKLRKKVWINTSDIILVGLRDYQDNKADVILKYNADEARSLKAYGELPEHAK

[3] = eIF1A Δ NTT, from the titration data, read-out: IC50 (eIF1A Δ NTT titration block)
[4] = summary table, fluorescence binding assay, read-out: IC50 concentration (µM), NTT truncation

SMILES	Reference vs IRF7 (Final data, Fig. 1E) ([1]; 20 µM)	GFP reporter ratio nsp1/gfp, avg (NSP1)	GFP reporter ratio nsp1/gfp, rep 1 (NSP1)	ratio (nsp1/gfp) (NSP1)	fluorescence ratio, eIF1A Δ NTT (eIF1A without NTT; 1Ai conc. 0.25 uM)	fluorescence ratio, eIF1A Δ NTT (eIF1A without NTT; 1Ai conc. 0.5 uM)	fluorescence ratio, eIF1A Δ NTT (eIF1A without NTT; 1Ai conc. 1 uM)	fluorescence ratio, eIF1A Δ NTT (eIF1A without NTT; 1Ai conc. 2 uM)	fluorescence ratio, eIF1A Δ NTT (eIF1A without NTT; 1Ai conc. 4 uM)	fluorescence ratio, eIF1A Δ NTT (eIF1A without NTT; 1Ai conc. 8 uM)	fluorescence ratio, eIF1A Δ NTT (eIF1A without NTT; 1Ai conc. 16 uM)	fluorescence ratio, eIF1A Δ NTT (eIF1A without NTT; 1Ai conc. 32 uM)	fluorescence ratio, eIF1A Δ NTT (eIF1A without NTT; 1Ai conc. 64 uM)	fluorescence ratio, eIF1A Δ NTT (eIF1A without NTT; 1Ai conc. 256 uM)	IC50 (eIF1A without NTT; [3]) [µM]	IC50 (eIF1A without NTT; [4]) [µM]	US/DS ratio, average [2]	fluorescence ratio, eIF1A Δ CTT (eIF1A without CTT; 1Ai conc. 0.25 uM)	fluorescence ratio, eIF1A Δ CTT (eIF1A without CTT; 1Ai conc. 0.5 uM)	fluorescence ratio, eIF1A Δ CTT (eIF1A without CTT; 1Ai conc. 1 uM)	other results
CN1CCN(S(=O)(=O)c2ccc(N3Cc4cc5c(cc4C4(CCCC4)C3)OCCO5)nc2)CC1 [1Ai-3564]	1.762	0.5007	0.5007	0.501	1	1.007	0.9932	1.2	1.048	1.009	1.298	1.4	1.423	1.807	43.2	43.2	0.4649	1.127 and 1.051	1.14 and 1.091	1.087 and 1.0877	LONG (summary - All), normalized to DMSO ([1]; 20 µM): 0.26 and 0.60 and 0.49 and 0.43 and 0.25; SHORT (summary - All), normalized to DMSO ([1]; Short reporter, 20 µM): 0.54 and 0.80 and 0.85 and 0.72 and 0.67; Long 5'UTR reporter luciferase activity, normalized to DMSO (=1), single replicates ([1]; compound at 20 µM, left data block (Long), source data of Fig 1C): 0.261 and 0.6001 and 0.4877 and 0.4313 and 0.2492; average ( long vs short ratio) ([1]; 20 µM): 0.568; gfp signal, mean of duplicate wells (NSP1): 362.5; nsp1 signal, mean of duplicate wells (NSP1): 181.5; binding to CTT-truncated eIF1A (eIF1A without CTT): compromised; fluorescence ratio, eIF1A Δ CTT (eIF1A without CTT; 1Ai conc. 2 uM): 1.109 and 1.056; fluorescence ratio, eIF1A Δ CTT (eIF1A without CTT; 1Ai conc. 4 uM): 1.011 and 1.035; fluorescence ratio, eIF1A Δ CTT (eIF1A without CTT; 1Ai conc. 8 uM): 0.8478 and 0.8594; fluorescence ratio, eIF1A Δ CTT (eIF1A without CTT; 1Ai conc. 16 uM): 0.8634 and 0.8337; fluorescence ratio, eIF1A Δ CTT (eIF1A without CTT; 1Ai conc. 32 uM): 0.9829 and 0.8523; fluorescence ratio, eIF1A Δ CTT (eIF1A without CTT; 1Ai conc. 64 uM): 1.0625 and 1.083; fluorescence ratio, eIF1A Δ CTT (eIF1A without CTT; 1Ai conc. 256 uM): 1.108 and 1.021; CTT truncation IC50 (eIF1A without CTT; eIF1A without CTT): No binding; IC50 concentration (µM), CTT truncation (eIF1A without CTT; summary table, fluorescence binding assay): No binding
COc1cccc(Nc2nc(-c3ccc(NC(C)=O)cc3)c(C)s2)c1 [1Ai-1869]	1.329	0.4109	0.4212	0.421 and 0.401 and 0.735	1	0.9867	1.085	0.9841	0.9947	0.9125	0.8674	0.7984	0.7082	0.6737	21.3	21.3	1.144	0.6232 and 0.681	0.6378 and 0.5984	0.6117 and 0.6127	LONG (summary - All), normalized to DMSO ([1]; 5 µM): 0.51 and 0.25 and 0.61; SHORT (summary - All), normalized to DMSO ([1]; Short reporter, 5 µM): 0.54 and 0.69 and 0.59; Short: Normalized to average DMSO ([1]; data section, Short reporter, GFP-corrected, 5 µM, per experiment, includes values excluded as outliers): 0.5397 and 0.69 and 0.5937; average ( long vs short ratio) ([1]; 5 µM): 0.752; GFP reporter ratio nsp1/gfp, rep 2 (NSP1): 0.4006; fluorescence ratio, eIF1A Δ CTT (eIF1A without CTT; 1Ai conc. 2 uM): 0.4666 and 0.4698; fluorescence ratio, eIF1A Δ CTT (eIF1A without CTT; 1Ai conc. 4 uM): 0.4763 and 0.4603; fluorescence ratio, eIF1A Δ CTT (eIF1A without CTT; 1Ai conc. 8 uM): 0.4568 and 0.3937; fluorescence ratio, eIF1A Δ CTT (eIF1A without CTT; 1Ai conc. 16 uM): 0.3246 and 0.3079; fluorescence ratio, eIF1A Δ CTT (eIF1A without CTT; 1Ai conc. 32 uM): 0.1925 and 0.219; fluorescence ratio, eIF1A Δ CTT (eIF1A without CTT; 1Ai conc. 64 uM): 0.1778 and 0.2; fluorescence ratio, eIF1A Δ CTT (eIF1A without CTT; 1Ai conc. 256 uM): 0.2104 and 0.2095; IC50 (eIF1A without CTT; eIF1A Δ CTT, from the titration data, read-out: IC50 (eIF1A Δ CTT titration block)): 5.75 µM; IC50 (eIF1A without CTT; summary table, fluorescence binding assay, read-out: IC50 concentration (µM), CTT truncation): 5.7 µM
